The values that follow are results of earlier work, collected in patent US11065260B1, “Method of treatment for reducing pulmonary inflammation in a patient with pathogen infection using oral prostacyclin analog drugs” (priority 2020, dated 2021).

The term half-life denotes the time in which the quantity being followed falls by half.

Data set [1] relates to COVID-19. The settings on record: several small trials.
The conditions of data set [2]: human, in vivo, inhaled or intranasal.
The conditions of data set [3]: human, in vivo, po.
For data set [4] the following is noted: patients with pulmonary hypertension and ARDS.
In a further data set the test system is pulmonary inflammation. Conditions: several animal studies.
The conditions of data set [5]: in vivo, po.
The conditions of data set [6]: human, in vivo.
The conditions of data set [7]: within 1 hour, pH 7.4 phosphate buffer, optimal formulation.
Data set [8] relates to COVID-19. The settings on record: randomized clinical trial of 199 patients.

Take `CCN(CCO)CCCC(C)Nc1ccnc2cc(Cl)ccc12` (stereo not drawn) [hydroxychloroquine]: the clinical results with COVID-19 [1] was “mixed results”.
As for `CC#CCC(C)[C@H](O)/C=C/[C@@H]1[C@H]2C/C(=C/CCCC(=O)O)C[C@H]2C[C@H]1O` (stereo partly drawn) [iloprost], in data set [2], the half-life was 20 to 30 min. In addition, in data set [3], the “adverse effects leading to discontinuation of dose escalation” value is “flushing and headache”; the bioavailable dose fraction result is “highest”; the “duration of half-maximal serum levels (mean)” value was 2.4 h; the “duration of therapeutic serum levels” value was 2.1 to 5.0 h. Besides, in [4], the gas exchange result is “improved”. Also, in the data set with pulmonary inflammation, the pulmonary inflammation entry is on record as “reduce pulmonary inflammation”. The steady-state serum levels in data set [5] is listed as 260 pg/mL. Moreover, in [6], the contraindications entry was “no contraindications” and the side effects entry was “minimal side effects”. In the data set with human monocytes, the “production of interleukin IL-6” value is on record as “inhibit” and the “production of intracellular TNF-α” value is listed as “inhibit”. Besides, in the data set with T cells, the “IL-2 and RANKL” value was “increasing”; the “TNF-α production by T cells” value was “reducing”; the “number of T regulatory cells” value was “reducing”. The “in vitro dissolution of the dose” value in [7] is 60%.
In the case of lopinavir-ritonavir, in the data set with COVID-19 [8], the clinical benefit entry is “No benefit”.
